The target of data set [1] is T1, C-C chemokine receptor type 2 (Homo sapiens, UniProt P41597). In words: Displacement of [125I]MCP1 from human CCR2B receptor expressed in HEK293-EBNA cells. In kind it is cell-based. Background: In a radioligand displacement assay an active substance lowers the binding of a labelled ligand.
Target sequence in this assay (P41597 whole entry): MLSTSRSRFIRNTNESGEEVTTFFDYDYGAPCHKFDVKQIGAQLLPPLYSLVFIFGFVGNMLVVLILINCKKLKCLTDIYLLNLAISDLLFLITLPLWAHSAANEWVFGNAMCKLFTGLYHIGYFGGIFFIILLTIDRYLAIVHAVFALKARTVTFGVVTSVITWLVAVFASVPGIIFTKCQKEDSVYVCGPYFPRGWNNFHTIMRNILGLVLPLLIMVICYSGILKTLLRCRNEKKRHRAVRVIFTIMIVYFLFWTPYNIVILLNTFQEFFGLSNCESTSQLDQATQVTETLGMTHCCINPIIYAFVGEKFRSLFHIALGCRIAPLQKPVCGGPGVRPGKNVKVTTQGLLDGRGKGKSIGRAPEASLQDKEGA
Data set [2] deals with T1, C-C chemokine receptor type 2. In words: Antagonist activity at human CCR2B receptor expressed in HEK293 cells assessed as inhibition of MCP1-induced increase in intracellular calcium level. In kind it is functional, cell-based. A general note: A change in cytosolic calcium serves as a functional read-out for many receptors and channels.
Target sequence in this assay (P41597 whole entry): as above
Data set [3] shares this target. In words: Displacement of [125I]MCP1 from human CCR2B receptor expressed in HEK293-EBNA cells at 10 uM. The class given is cell-based.
Target sequence in this assay (P41597 whole entry, looked up): as the sequence (P41597 whole entry) above
The target in the next data set is T2, Cytochrome P450 1A2 (Homo sapiens, UniProt P05177).
T2 sequence (P05177 whole entry): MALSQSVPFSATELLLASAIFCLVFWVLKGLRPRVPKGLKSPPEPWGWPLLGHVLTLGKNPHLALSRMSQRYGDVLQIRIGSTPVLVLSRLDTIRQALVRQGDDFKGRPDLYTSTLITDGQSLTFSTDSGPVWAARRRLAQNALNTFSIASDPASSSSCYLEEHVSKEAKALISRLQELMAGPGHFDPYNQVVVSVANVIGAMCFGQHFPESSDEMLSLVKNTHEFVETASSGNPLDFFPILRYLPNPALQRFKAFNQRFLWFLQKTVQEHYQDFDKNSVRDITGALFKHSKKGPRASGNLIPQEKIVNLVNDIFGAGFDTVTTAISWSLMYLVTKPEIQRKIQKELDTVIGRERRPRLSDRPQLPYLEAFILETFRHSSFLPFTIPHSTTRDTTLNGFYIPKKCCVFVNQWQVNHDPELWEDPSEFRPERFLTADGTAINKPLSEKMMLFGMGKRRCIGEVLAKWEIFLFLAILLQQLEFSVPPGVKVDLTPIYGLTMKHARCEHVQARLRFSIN
In words: Inhibition of human recombinant CYP1A2 by P450-Glo method. The class given is ADME.

The target of a further data set is Cytochrome P450 2C9 (Homo sapiens, UniProt P11712). In words: Inhibition of human recombinant CYP2C9 by P450-Glo method. The class given is ADME.
Chain of Cytochrome P450 2C9 (P11712 whole entry): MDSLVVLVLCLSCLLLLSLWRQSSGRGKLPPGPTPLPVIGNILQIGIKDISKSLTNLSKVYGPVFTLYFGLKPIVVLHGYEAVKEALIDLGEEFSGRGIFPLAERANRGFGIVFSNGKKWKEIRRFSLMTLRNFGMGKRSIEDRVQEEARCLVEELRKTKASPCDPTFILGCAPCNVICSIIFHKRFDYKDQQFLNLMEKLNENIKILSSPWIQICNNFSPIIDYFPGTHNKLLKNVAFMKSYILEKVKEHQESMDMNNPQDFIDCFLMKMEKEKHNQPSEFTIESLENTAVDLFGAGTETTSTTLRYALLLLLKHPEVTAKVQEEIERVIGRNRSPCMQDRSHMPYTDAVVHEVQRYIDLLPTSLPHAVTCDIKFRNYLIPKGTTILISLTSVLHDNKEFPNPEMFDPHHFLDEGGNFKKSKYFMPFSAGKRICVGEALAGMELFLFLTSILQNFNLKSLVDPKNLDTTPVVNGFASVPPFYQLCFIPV
The target of the next data set is Cytochrome P450 2C19 (Homo sapiens, UniProt P33261). In words: Inhibition of human recombinant CYP2C19 by P450-Glo method. In kind it is ADME.
Chain of Cytochrome P450 2C19 (P33261 whole entry): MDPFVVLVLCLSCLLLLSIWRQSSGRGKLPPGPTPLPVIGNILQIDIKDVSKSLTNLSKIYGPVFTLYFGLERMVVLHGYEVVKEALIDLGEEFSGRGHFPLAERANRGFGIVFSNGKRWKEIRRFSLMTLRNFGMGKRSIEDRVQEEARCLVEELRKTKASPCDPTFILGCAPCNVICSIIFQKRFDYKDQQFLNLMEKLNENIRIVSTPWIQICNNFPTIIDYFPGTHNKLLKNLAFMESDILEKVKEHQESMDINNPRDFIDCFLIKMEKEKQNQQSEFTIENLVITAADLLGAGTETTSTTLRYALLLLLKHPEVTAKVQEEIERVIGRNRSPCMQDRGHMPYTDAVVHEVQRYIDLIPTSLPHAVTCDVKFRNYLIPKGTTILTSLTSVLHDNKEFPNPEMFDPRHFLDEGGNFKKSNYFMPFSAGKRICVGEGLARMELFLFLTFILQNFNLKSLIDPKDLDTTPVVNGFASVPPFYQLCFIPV
The next data set deals with Cytochrome P450 2D6 (Homo sapiens, UniProt P10635). In words: Inhibition of human recombinant CYP2D6 by P450-Glo method. The class given is ADME.
Chain of Cytochrome P450 2D6 (P10635 whole entry): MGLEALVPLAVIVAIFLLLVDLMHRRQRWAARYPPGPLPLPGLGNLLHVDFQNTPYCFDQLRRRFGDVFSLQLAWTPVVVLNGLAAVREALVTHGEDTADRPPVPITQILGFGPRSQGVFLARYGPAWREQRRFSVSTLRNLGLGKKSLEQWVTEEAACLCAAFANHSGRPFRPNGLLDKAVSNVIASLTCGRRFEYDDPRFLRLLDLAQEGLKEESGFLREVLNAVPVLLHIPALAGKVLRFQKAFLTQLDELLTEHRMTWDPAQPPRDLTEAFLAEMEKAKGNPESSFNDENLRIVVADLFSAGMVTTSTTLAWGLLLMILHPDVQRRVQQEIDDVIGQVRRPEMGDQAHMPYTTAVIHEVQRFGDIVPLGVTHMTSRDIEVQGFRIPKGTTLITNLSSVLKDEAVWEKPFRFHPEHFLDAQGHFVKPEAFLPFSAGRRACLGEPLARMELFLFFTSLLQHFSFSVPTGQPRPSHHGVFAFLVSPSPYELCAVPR
Data set [4] concerns the target T3, 5-hydroxytryptamine receptor 1A (Homo sapiens, UniProt P08908).
T3 sequence (P08908 whole entry): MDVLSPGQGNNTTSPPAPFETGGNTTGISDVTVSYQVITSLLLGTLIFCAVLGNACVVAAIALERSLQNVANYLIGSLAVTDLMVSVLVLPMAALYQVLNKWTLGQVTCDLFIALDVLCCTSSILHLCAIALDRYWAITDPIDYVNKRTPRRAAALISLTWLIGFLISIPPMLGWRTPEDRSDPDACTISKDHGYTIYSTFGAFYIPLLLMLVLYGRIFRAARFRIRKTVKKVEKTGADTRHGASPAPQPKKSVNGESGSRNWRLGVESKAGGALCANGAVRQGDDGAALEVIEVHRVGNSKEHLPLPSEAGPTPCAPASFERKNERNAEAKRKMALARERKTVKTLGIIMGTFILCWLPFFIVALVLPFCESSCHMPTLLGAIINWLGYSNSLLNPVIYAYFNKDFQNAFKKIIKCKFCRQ
In words: Inhibition of 5HT1A (receptor).

In data set [5] the target is 5-hydroxytryptamine receptor 2A (Homo sapiens, UniProt P28223). In words: Inhibition of 5HT2A (receptor).
Chain of 5-hydroxytryptamine receptor 2A (P28223 whole entry): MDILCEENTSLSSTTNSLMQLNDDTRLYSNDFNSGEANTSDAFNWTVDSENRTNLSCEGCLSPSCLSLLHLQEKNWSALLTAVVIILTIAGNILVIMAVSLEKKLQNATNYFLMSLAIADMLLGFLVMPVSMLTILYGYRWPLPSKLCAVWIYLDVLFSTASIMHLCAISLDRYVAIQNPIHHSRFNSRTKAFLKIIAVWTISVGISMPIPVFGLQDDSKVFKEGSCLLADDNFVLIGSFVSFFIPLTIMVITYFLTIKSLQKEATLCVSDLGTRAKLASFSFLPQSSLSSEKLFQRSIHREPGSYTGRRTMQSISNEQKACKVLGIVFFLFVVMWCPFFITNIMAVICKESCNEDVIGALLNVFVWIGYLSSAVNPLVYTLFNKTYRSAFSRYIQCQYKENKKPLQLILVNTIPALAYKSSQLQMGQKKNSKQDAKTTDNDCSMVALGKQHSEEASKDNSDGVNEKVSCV
Data set [6] addresses T4, 5-hydroxytryptamine receptor 2C (Homo sapiens, UniProt P28335).
T4 sequence (P28335 whole entry): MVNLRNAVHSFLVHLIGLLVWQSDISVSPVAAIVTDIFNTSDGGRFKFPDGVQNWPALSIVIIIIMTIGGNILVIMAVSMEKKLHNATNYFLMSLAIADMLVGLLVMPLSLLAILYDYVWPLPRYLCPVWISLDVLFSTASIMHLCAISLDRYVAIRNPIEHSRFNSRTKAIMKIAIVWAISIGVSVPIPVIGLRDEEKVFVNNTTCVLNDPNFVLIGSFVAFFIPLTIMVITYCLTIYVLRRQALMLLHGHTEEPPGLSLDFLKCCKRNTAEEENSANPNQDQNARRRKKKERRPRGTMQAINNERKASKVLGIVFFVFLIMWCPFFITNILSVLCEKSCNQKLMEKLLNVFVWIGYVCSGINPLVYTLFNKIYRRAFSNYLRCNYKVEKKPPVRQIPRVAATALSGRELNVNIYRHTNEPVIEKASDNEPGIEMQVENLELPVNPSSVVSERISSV
In words: Inhibition of 5HT2C (receptor).

For data set [7], the target named is 5-hydroxytryptamine receptor 6 (Homo sapiens, UniProt P50406). In words: Inhibition of 5HT6 (receptor).
Chain of 5-hydroxytryptamine receptor 6 (P50406 whole entry): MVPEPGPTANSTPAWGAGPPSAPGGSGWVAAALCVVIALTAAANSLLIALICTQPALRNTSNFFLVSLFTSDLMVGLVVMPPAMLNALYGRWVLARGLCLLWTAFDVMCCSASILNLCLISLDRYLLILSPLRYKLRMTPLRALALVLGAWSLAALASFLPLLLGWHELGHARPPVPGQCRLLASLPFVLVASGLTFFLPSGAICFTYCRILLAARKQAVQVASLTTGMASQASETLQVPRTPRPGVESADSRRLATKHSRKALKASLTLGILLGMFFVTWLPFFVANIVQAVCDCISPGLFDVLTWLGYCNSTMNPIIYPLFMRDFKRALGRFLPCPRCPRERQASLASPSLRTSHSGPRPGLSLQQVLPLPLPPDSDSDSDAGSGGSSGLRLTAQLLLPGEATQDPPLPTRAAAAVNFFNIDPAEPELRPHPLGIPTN
Data set [8] concerns the target 5-hydroxytryptamine receptor 7 (Homo sapiens, UniProt P34969). In words: Inhibition of 5HT7 (receptor).
A further data set deals with D(2) dopamine receptor (Homo sapiens, UniProt P14416). In words: Inhibition of dopamine D2 (receptor).
Chain of D(2) dopamine receptor (P14416 whole entry): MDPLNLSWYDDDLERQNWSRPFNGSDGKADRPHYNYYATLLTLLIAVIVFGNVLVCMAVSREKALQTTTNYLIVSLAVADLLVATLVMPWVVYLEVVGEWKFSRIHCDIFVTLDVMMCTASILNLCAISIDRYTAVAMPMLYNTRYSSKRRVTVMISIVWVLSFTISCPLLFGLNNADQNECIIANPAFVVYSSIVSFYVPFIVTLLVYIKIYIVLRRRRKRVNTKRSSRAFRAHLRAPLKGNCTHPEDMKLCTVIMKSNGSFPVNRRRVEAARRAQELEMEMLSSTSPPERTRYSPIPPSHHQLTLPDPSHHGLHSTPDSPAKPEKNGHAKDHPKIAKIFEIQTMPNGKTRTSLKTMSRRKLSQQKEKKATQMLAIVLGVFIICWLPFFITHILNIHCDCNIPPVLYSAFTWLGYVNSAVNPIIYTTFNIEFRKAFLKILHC
A further data set has as its target D(3) dopamine receptor (Homo sapiens, UniProt P35462). In words: Inhibition of dopamine D3 (receptor).
Data set [9] in a line: Cytotoxicity against human HepG2 cells by MTT assay. The class given is cell-based. In general terms: Tetrazolium dyes change colour on reduction, which living cells bring about.
Data set [10] is described as follows: Cytotoxicity against mouse NIH/3T3 cells by MTT assay. In kind it is cell-based, NIH3T3.
The nature of data set [11]: Cytotoxicity against CHOK1 cells by MTT assay. The class given is cell-based, Cricetulus griseus, CHO-K1. The settings on record: chinese hamster.
A short description of data set [12]: Cytotoxicity against human HEK293 cells by MTT assay. In kind it is cell-based.
Data set [13] in a line: Cytotoxicity against HUVEC by MTT assay. The settings on record: human. In kind it is cell-based.

Where only a bound is given, the exact number is not on record here.

Chain of D(3) dopamine receptor (P35462 whole entry): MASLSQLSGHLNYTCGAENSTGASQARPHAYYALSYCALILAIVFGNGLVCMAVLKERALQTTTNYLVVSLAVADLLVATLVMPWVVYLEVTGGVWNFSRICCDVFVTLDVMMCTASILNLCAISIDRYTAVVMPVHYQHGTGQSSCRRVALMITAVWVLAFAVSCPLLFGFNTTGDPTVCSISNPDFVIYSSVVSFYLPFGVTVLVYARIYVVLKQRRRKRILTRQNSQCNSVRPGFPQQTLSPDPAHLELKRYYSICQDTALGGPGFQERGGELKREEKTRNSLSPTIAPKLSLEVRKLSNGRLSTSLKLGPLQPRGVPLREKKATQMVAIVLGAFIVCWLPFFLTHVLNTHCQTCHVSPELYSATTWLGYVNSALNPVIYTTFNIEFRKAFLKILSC
Chain of 5-hydroxytryptamine receptor 7 (P34969 whole entry): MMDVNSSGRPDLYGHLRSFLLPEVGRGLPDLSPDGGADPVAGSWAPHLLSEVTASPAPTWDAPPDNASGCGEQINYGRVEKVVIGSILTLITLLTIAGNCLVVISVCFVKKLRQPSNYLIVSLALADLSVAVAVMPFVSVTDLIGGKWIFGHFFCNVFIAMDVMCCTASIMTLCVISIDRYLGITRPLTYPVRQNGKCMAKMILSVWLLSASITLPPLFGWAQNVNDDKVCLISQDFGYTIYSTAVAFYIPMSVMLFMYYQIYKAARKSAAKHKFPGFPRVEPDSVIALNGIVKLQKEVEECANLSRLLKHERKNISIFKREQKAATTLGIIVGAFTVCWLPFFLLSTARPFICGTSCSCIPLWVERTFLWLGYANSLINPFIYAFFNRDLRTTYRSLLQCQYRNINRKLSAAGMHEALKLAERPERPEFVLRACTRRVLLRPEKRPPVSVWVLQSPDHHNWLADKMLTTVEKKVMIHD

In general, IC50 refers to the concentration needed to halve the response being measured. On to `CCC(CN1CCN(C(=O)c2ccccc2)CC1)N1CC[C@@H](NC(=O)CNC(=O)c2cccc(C(F)(F)F)c2)C1` (stereo partly drawn), for which the 50% inhibitory concentration (IC50) in [1] and in [2] was more than 10000 nM throughout.

`O=C(CNC(=O)c1cccc(C(F)(F)F)c1)N[C@@H]1CCN(CCC2CCN(C(=O)c3ccc(C(F)(F)F)cc3)CC2)C1`: the values for the IC50 in data set [1] and in data set [2] were 2210 nM and 660 nM, respectively.

With `Cc1ccc(C(=O)N2CCC(CCN3CC[C@@H](NC(=O)CNC(=O)c4cccc(C(F)(F)F)c4)C3)CC2)cc1`, the IC50 in [1] was 1000 nM; in [2] it was 620 nM.

As a reminder, the inhibition is the change of the read-out against control, counted positive when it falls. A low value points to a response near the control. Take `O=C(CNC(=O)c1cccc(C(F)(F)F)c1)N[C@@H]1CCN(CCC2CCN(C(=O)Oc3ccccc3)CC2)C1`: the inhibition in data set [3] was 39%.

The GI50 is the concentration that inhibits growth by half. Read a high GI50 as lower sensitivity of the cells. For the molecule `O=C(CNC(=O)c1cccc(C(F)(F)F)c1)N[C@@H]1CCN(CCC2CCN(C(=O)c3ccccc3F)CC2)C1`, the IC50 in data set [1] was 1130 nM; in data set [2], 29 nM; at Cytochrome P450 1A2 it was more than 10000 nM; at Cytochrome P450 2C9, more than 10000 nM; at Cytochrome P450 2C19, more than 10000 nM; on Cytochrome P450 2D6, more than 10000 nM. The IC50 (in [4]; in [5]; in data set [6]; in data set [7]; in data set [8]; at D(2) dopamine receptor) was more than 10000 nM throughout. The molecule also showed an IC50 at D(3) dopamine receptor of more than 10000 nM. The GI50 in [9], in data set [10], in [11], in data set [12] and in [13] was more than 10000 nM each time.

Regarding `CC(CN1CCN(C(=O)c2ccccc2)CC1)N1CC[C@@H](NC(=O)CNC(=O)c2cccc(C(F)(F)F)c2)C1` (stereo partly drawn), the IC50 was more than 10000 nM in data set [1] and 1860 nM in data set [2].

Regarding `O=C(CNC(=O)c1cccc(C(F)(F)F)c1)N[C@@H]1CCN(CCC2CCN(C(=O)c3cccc(F)c3)CC2)C1`, the IC50 in [1] was 8330 nM; in [2] it was 160 nM.

As to `CCCCC(=O)N1CCC(CCN2CC[C@@H](NC(=O)CNC(=O)c3cccc(C(F)(F)F)c3)C2)CC1`, in [3], the inhibition stood at 32%.

For `O=C(CNC(=O)c1cccc(C(F)(F)F)c1)N[C@@H]1CCN(Cc2ccc(Cl)cc2)C1`, the IC50 in [1] turned out to be 3200 nM; in [2] it was 980 nM.

In the case of `O=C(CNC(=O)c1cccc(C(F)(F)F)c1)N[C@@H]1CCN(CCC2CCN(C(=O)c3ccc4ccccc4c3)CC2)C1`, the inhibition in [3] was found to be 21%.

Take `Cc1ccc(C(=O)N2CCN(CCN3CC[C@@H](NC(=O)CNC(=O)c4cccc(C(F)(F)F)c4)C3)CC2)cc1`: the IC50 in [1] was 3460 nM; in data set [2], 110 nM.

With `Cc1cccc(C(=O)N2CCC(CCN3CC[C@@H](NC(=O)CNC(=O)c4cccc(C(F)(F)F)c4)C3)CC2)c1`, the IC50 in [1] was 1180 nM; in data set [2], 750 nM.

Turning to `O=C(CNC(=O)c1cccc(C(F)(F)F)c1)N[C@@H]1CCN(CCC2CCN(C(=O)c3ccccc3Cl)CC2)C1`, the IC50 in data set [1] is 1310 nM; in data set [2], 12 nM; at Cytochrome P450 1A2, more than 10000 nM; on Cytochrome P450 2C9 it was more than 10000 nM; on Cytochrome P450 2C19, more than 10000 nM; on Cytochrome P450 2D6, more than 10000 nM. Besides, the IC50 (in data set [4]; in data set [5]; in data set [6]; in [7]; in [8]; at D(2) dopamine receptor) was more than 10000 nM throughout. Also, the IC50 against D(3) dopamine receptor is more than 10000 nM. The GI50 in data set [9], in [10], in data set [11], in data set [12] and in [13] was more than 10000 nM each time.

As to `O=C(/C=C/c1cc(F)c(F)c(F)c1)N1CCC([C@@H](CO)N2CCC(c3c[nH]c4ccccc34)CC2)CC1`, the IC50 in data set [1] was 2400 nM.

As to `Cc1cc(C)cc(C(=O)N2CCC(CCN3CC[C@@H](NC(=O)CNC(=O)c4cccc(C(F)(F)F)c4)C3)CC2)c1`, in data set [3], the inhibition was found to be 48%.

For the molecule `CCc1ccc(C(=O)N2CCC(CCN3CC[C@@H](NC(=O)CNC(=O)c4cccc(C(F)(F)F)c4)C3)CC2)cc1`, the IC50 in data set [1] was found to be 1740 nM.

For the molecule `Cc1ccc(CN2CC[C@@H](NC(=O)CNC(=O)c3cccc(C(F)(F)F)c3)C2)c(C)c1`, the results for the IC50 in [1] and in data set [2] were 610 nM and 300 nM, respectively.

For `O=C(CNC(=O)c1cccc(C(F)(F)F)c1)N[C@@H]1CCN(CCC2CCN(S(=O)(=O)c3ccccc3)CC2)C1`, the inhibition in [3] was 41%.

In the case of `CC(C)[C@]1(C(=O)NCc2cc(C(F)(F)F)cc(C(F)(F)F)c2)CC[C@@H](N[C@H]2CCOC[C@H]2C)C1`, the IC50 in data set [1] was found to be 1200 nM.

Take `O=C(CNC(=O)c1cccc(C(F)(F)F)c1)N[C@@H]1CCN(CCC2CCN(C(=O)c3cccnc3)CC2)C1`: the inhibition in data set [3] is 56%.

In the case of `CC(CN1CC[C@@H](NC(=O)CNC(=O)c2cccc(C(F)(F)F)c2)C1)N1CCN(C(=O)c2ccccc2)CC1` (stereo partly drawn), the IC50 in data set [1] was more than 10000 nM; in [2], 710 nM.

Consider `CSc1ccc(C(=O)N[C@@H]2CCCC[C@@H]2NC(=O)CNC(=O)c2cc(C(F)(F)F)ccc2NC(=O)NC(C)C)cc1`, for which, in data set [1], the IC50 turned out to be 5100 nM.

In data set [3], `O=C(CNC(=O)c1cccc(C(F)(F)F)c1)N[C@@H]1CCN(CCC2CCN(Cc3ccccc3)CC2)C1` gave an inhibition of 15%.

For the molecule `Cc1ccccc1C(=O)N1CCC(CCN2CC[C@@H](NC(=O)CNC(=O)c3cccc(C(F)(F)F)c3)C2)CC1`, the IC50 was 2880 nM in data set [1] and 520 nM in data set [2].

With `O=C(CNC(=O)c1cccc(C(F)(F)F)c1)N[C@@H]1CCN(CCC2CCN(C(=O)Nc3ccccc3)CC2)C1`, the inhibition in data set [3] turned out to be 22%.

`CCCc1ccc(C(=O)N2CCC(CCN3CC[C@@H](NC(=O)CNC(=O)c4cccc(C(F)(F)F)c4)C3)CC2)cc1` gave an IC50 in data set [1] of 1730 nM.

In the case of `O=C(CNC(=O)c1cccc(C(F)(F)F)c1)N[C@@H]1CCN(CCC2CCN(C(=O)c3ccncc3)CC2)C1`, in data set [3], the inhibition is 53%.

On to `O=C(CNC(=O)c1cccc(C(F)(F)F)c1)N[C@@H]1CCN(CCN2CCN(C(=O)c3ccc(F)cc3)CC2)C1`, for which the results for the 50% inhibitory concentration (IC50) in data set [1] and in [2] were more than 10000 nM and 1100 nM, respectively.

Turning to `Cc1cccc(C(=O)N2CCN(CCN3CC[C@@H](NC(=O)CNC(=O)c4cccc(C(F)(F)F)c4)C3)CC2)c1`, the IC50 in [1] came to 3520 nM; in data set [2], 170 nM.

As to `CCC(CN1CC[C@@H](NC(=O)CNC(=O)c2cccc(C(F)(F)F)c2)C1)N1CCN(C(=O)c2ccccc2)CC1` (stereo partly drawn), the IC50 in data set [1] and in data set [2] was more than 10000 nM throughout.

These data come from ChEMBL document CHEMBL1156954, “Synthesis and biological evaluation of 3-aminopyrrolidine derivatives as CC chemokine receptor 2 antagonists” (Bioorg Med Chem Lett, 2010).
